Measured values reported in patent US20050043363A1, “Efficient microbial preparation of capravirine metabolites M4 and M5” (AGOURON PHARMACEUTICALS, INC., priority 2003, published 2005).

Assays:
HIV = experiment: Antiviral activity determined measuring XTT dye reduction; type: cell-based; conditions: for EC50 / EC90: Human immunodeficiency virus 1, antiviral activity, XTT dye reduction, mean of 2-4 experiments (M4, M5) or 9 experiments (CPV)
From the text: The term “EC50”, as used herein, means the statistically derived concentration of a toxicant that can be expected to cause a defined non-lethal effect in 50% of a given population of organisms under defined conditions.
The term “EC90”, as used herein, means the statistically derived concentration of a toxicant that can be expected to cause a defined non-lethal effect in 90% of a given population of organisms under defined conditions.

[1] = Cytotoxicity determined measuring XTT dye reduction; type: cell-based; conditions: compound-treated cells, 50% cytotoxicity concentration, uninfected cells
Description: The term “CC50”, as used herein, means the 50% cytotoxicity concentration, which is calculated as the concentration of compound that decreases the viability of uninfected, compound-treated cells to 50% of that of uninfected, compound-free cells.

## CC(C)(O)c1nc(COC(N)=O)n(Cc2ccncc2)c1Sc1cc(Cl)cc(Cl)c1 [M4]
HIV
  TI (Therapeutic index = CC50/EC50): >6,737
  EC50: 0.048 µM
  EC90: 0.11 µM
[1]
  CC50: > 320 µM

## CC(CO)c1nc(COC(N)=O)n(Cc2ccncc2)c1Sc1cc(Cl)cc(Cl)c1 (stereo not drawn) [M5]
HIV
  TI (Therapeutic index = CC50/EC50): >6,882
  EC50: 0.047 µM
  EC90: 0.11 µM
[1]
  CC50: > 320 µM

## CC(C)c1nc(COC(N)=O)n(Cc2ccncc2)c1Sc1cc(Cl)cc(Cl)c1 [CPV, 2-carbamoyloxymethyl-5-(3,5-dichlorophenyl)thio-4-isopropyl-1-(4-pyridyl)methyl-1H-imidazole, reference compound]
HIV
  TI (Therapeutic index = CC50/EC50): 45,667
  EC50: 0.0015 µM
  EC90: 0.0032 µM
[1]
  CC50: 69 µM
